Where two headings read alike, the source gives them in different places.
How the values were obtained:
[1] = test system: breast tumor cells (MDA-435); assay: MTT assay, 24 hour pre-exposure to roscovitine followed by 24 hour exposure to gemcitabine; type: cell-based; conditions: 24 h roscovitine then 24 h gemcitabine
[2] = test system: human prostrate tumor cells; conditions: concurrent exposure
Experimental: The MTT assay is a spectrophotometric assay based on the ability of viable cells to convert MTT to formazan. Cell concentrations were estimated by measuring absorbance at test wavelength of 570 nm and a reference wavelength of 630 nm. An automated procedure was utilized to determine the IC50 value (concentration of drug which inhibits cell growth by 50% of the control) of all agents used in these studies.
After the initial IC50 analysis was complete, the combinations were then tested. For the combination studies, the concentration (expressed as a percent of the individual agent's IC50) schema used to characterise the type of interaction is shown below:
If the majority of (≧3 of 5) of the values are statistically above or below the line (endpoints) then antagonism or synergy is described, respectively. Otherwise, the pattern is more consistent with an additive interaction.

[3] = % IC50 0/100: roscovitine 0, gemcitabine 15.00 ng/ml
[4] = % IC50 0/100: roscovitine 0, gemcitabine 11.25 ng/ml
[5] = % IC50 100/0: roscovitine 9.00 ug/ml, gemcitabine 0
[6] = % IC50 100/0: roscovitine 6.75 ug/ml, gemcitabine 0

Nc1ccn([C@@H]2O[C@H](CO)[C@@H](O)C2(F)F)c(=O)n1 [Gemc., 2′-deoxy-2′,2′-difluorocytidine]
% Abs [1, 3]: 85.0% | % Response [1, 3]: 15.0% | % Abs [2, 4]: 93.1% | % Response [2, 4]: 6.9%

CC[C@H](CO)Nc1nc(NCc2ccccc2)c2ncn(C(C)C)c2n1 [Roscovitine, 6-benzylamino-2-[(R)-1-ethyl-2-hydroxyethylamino]-9-isopropylpurine]
% Abs [1, 5]: 64.5% | % Response [1, 5]: 35.5% | % Abs [2, 6]: 83.3% | % Response [2, 6]: 16.7%

Source: US20050267066A1, “Pharmaceutical composition comprising a CDK inhibitor and gemcitabine” (Cyclacel Limited, priority 2002, published 2005)
